Drawing on PMC9287138, “Proteasome activator 28γ (PA28γ) allosterically activates trypsin-like proteolysis by binding to the α-ring of the 20S proteasome” (The Journal of Biological Chemistry, 2022), this text covers inhibition for one compound.

This assay addresses T1, human 20S proteasome (H20S) (Homo sapiens, UniProt P28074+Q99436).
T1 construct: gene PSMB5; with Proteasome subunit beta type-6 (caspase-like site); Proteasome subunit alpha type-6; Proteasome subunit alpha type-2; Proteasome subunit alpha type-4; Proteasome subunit alpha type-7; Proteasome subunit alpha type-5; Proteasome subunit alpha type-1; Proteasome subunit alpha type-3; Proteasome subunit beta type-3; Proteasome subunit beta type-2; Proteasome subunit beta type-1; Proteasome subunit beta type-4
Description: inhibition of boc-RLR-AMC hydrolysis. The format is biochemical.

As for `CC(=O)N[C@@H](CC(C)C)C(=O)N[C@@H](CC(C)C)C(=O)N[C@H](C=O)CCCNC(=N)N` [leupeptin], the inhibition at 40 µM was 94 to 100%.

What is called inhibition is the share of the control response that was lost under treatment. A lower inhibition goes with little suppression.
